Laboratory results: patent US20080170990A1, “Methods for Myocardial Imaging in Patients Having a History of Pulmonary Disease” (CV THERAPEUTICS, INC., priority 2006, published 2008)

Experiments:
[1] = system: subjects undergoing stress/rest MPI; experiment: Stress/rest SPECT myocardial perfusion imaging, adenosine vs Regadenoson (Example 6); type: in vivo, human; details: SPECT MPI, 17-segment model; p=n.s.
Experimental: To determine the ability of Regadenoson to produce coronary hyperemia and accurately detect CAD, 35 subjects (26 men, 9 women; 67±10 years) underwent both A and Regadenoson stress/rest MPI, with 10.0±9.1 days between studies. […] Regadenoson [400 mcg (n=18), 500 mcg (n=17)] was administered as an IV bolus immediately followed by a saline flush, and then a Tc-99m radiopharmaceutical [sestamibi (n=34), tetrofosmin (n=1)]. SPECT images were uniformly processed, intermixed with control studies (normal and fixed-only defects), and interpreted by three observers in a blinded fashion using a 17-segment model. Quantitative analysis was also performed using 4D MSPECT. In addition to three separate readings, a consensus interpretation was performed and then a direct, same-screen comparison of A and REGADENASON images undertaken to determine relative differences, using 5 regions per study.

[2] = system: patients undergoing a clinically indicated coronary catheterization; experiment: Coronary blood flow velocity (CBFv) by Doppler flow wire after IV bolus, open label study (Example 1); type: in vivo, human; details: 18 μg intracoronary (IC) Ado; mean ±SD
Experimental: The purpose of this open label study was to determine the magnitude and duration of effect of Regadenoson (10-500 μg) on CBFv in humans.
Patients undergoing a clinically indicated coronary catheterization with no more than a 70% stenosis in any coronary artery and no more than a 50% stenosis of the study vessel had CBFv determined by Doppler flow wire. Study subjects were selected after measuring baseline and peak CBFv after an intracoronary (IC) injection of 18 μg of Ado. Twenty-three patients, who were identified as meeting the study criteria of having a peak to baseline CBFv ration of ≧2.5 in response to Adenosine, received a rapid (≦10 sec) peripheral IV bolus of Regadenoson; Doppler signals were stable and interpretable over the time-course of the increase in CBFv in 17 patients.

COPD patients = details: both, human, in vivo
From the text: COPD patients were selected from two phase III randomized, triple-blind, placebo-controlled, multicenter studies (N=2,015) designed to test the strength of agreement for reversible cardiac defects between ADO and REG. There were 35 patients in the ADO group and 69 in the Regadenoson group. Age and gender were similar between ADO (68=11 yrs; 77% male) and Regadenoson group (68±11 yrs; 81% male). Of the 35 patients, 5 suffered (14%) cardiac symptoms in the ADO group vs 3/69 (4%) in the Regadenoson group (p=0.12); 14/35 (40%) in the ADO vs. 20/69 (29%) in the Regadenoson group resorted respiratory symptoms (p=0.28). Angina, occurrence of second degree AV block, acute pulmonary oedema and ronchi were higher in ADO group; nausea, GI discomfort and headache occurred more often in the Regadenoson group.

awake rats = experiment: Sympathoexcitation: heart rate, blood pressure and plasma catecholamines after i.v. bolus (Example 5); type: in vivo, rat; details: in the presence of hexamethonium 10 mg/kg, n=5
Experimental: CVT (0.31 μg/kg-50 μg/kg) was given as a rapid i.v. bolus to awake rats and heart rate (HR) and blood pressure (BP) were monitored. Regadenoson caused an increase in BP and systolic pressure (SP) at lower doses while at higher doses there was a decrease in BP and SP. […] The increase in HR was evident at the lowest dose of CVT at which there was no appreciable decrease in BP. ZM241385 (30 μg/kg, N=5), an A2A adenosine receptor antagonist, attenuated the decrease in BP (Regadenoson: 14±3%, ZM: 1±1%) and the increase in HR (CVT: 27±3%, ZM: 18±3%) caused by Regadenoson. Pretreatment with metoprolol (MET, 1 mg/kg, n=5), a beta-blocker, attenuated the increase in HR (CVT: 27±3%, MET: 15±2%), but had no effect on hypotension caused by Regadenoson. In the presence of hexamethonium (HEX, 10 mg/kg, n=5), a ganglionic blocker, the tachycardia was prevented (CVT: 27±3%, HEX: −1±2%), but BP was further reduced (CVT: −11±2%, HEX: −49±5%).

Row | Structure (SMILES) | summed score following stress, visual analysis [1] | peak to baseline CBFv ratio [2] | patients with cardiac symptoms (COPD patients) [%] | patients with cardiac symptoms, number (COPD patients) | patients with respiratory symptoms (COPD patients) [%] | patients with respiratory symptoms, number (COPD patients) | BP change caused by Regadenoson (awake rats) [%] | HR change (tachycardia) caused by Regadenoson (awake rats) [%]
1 | Nc1ncnc2c1ncn2[C@@H]1O[C@H](CO)[C@@H](O)[C@H]1O [ADO, adenosine, reference compound] | 133.9±1.5 | 3.2±0.5 | 14 | 5 | 40 | 14/35 | – | –
2 | C[N+](C)(C)CCCCCC[N+](C)(C)C [hexamethonium, reference compound] | – | – | – | – | – | – | −49±5 | −1±2
